44 molecules from US20220347175A1, “PYRIDAZINONE DERIVATIVE” (Sumitomo Dainippon Pharma Co., Ltd., priority 2018, published 2022) can be followed below.

One assay addresses T1, human Nav1.1 (Homo sapiens, UniProt P35498).
T1 construct: host or cells: HEK293
As to the kind of experiment: Amplification of Nav1.1-derived voltage-dependent sodium current (Nav1.1 current), cell line stably expressing human Nav1.1, automated patch clamp. Type of assay: cell-based. The conditions noted are these: for activation at 10 µM / activation at 1 µM / activation at 3 µM: read-out: Nav1.1 current amplification rate (%). The gist of the method: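 Amplification rate (%) is 100 × post-compound/pre-compound Nav1.1 peak current or AUC, minus 100. Ramp-evoked sodium currents were recorded by automated patch clamp in a human Nav1.1 HEK293 stable line, restricted to cells exceeding 500 pA, with compounds added in extracellular solution containing 1% DMSO.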
In general terms: In patch-clamp work, channel activity is measured electrically.

The target in another assay is T2, human Nav1.5 (Homo sapiens, UniProt Q14524).
T2 construct: expressed in transfected cells; host or cells: CHO-K1 (T-REx System, ThermoFisher Scientific)
T2 sequence (Q14524 1-2015 isoform Q14524-2): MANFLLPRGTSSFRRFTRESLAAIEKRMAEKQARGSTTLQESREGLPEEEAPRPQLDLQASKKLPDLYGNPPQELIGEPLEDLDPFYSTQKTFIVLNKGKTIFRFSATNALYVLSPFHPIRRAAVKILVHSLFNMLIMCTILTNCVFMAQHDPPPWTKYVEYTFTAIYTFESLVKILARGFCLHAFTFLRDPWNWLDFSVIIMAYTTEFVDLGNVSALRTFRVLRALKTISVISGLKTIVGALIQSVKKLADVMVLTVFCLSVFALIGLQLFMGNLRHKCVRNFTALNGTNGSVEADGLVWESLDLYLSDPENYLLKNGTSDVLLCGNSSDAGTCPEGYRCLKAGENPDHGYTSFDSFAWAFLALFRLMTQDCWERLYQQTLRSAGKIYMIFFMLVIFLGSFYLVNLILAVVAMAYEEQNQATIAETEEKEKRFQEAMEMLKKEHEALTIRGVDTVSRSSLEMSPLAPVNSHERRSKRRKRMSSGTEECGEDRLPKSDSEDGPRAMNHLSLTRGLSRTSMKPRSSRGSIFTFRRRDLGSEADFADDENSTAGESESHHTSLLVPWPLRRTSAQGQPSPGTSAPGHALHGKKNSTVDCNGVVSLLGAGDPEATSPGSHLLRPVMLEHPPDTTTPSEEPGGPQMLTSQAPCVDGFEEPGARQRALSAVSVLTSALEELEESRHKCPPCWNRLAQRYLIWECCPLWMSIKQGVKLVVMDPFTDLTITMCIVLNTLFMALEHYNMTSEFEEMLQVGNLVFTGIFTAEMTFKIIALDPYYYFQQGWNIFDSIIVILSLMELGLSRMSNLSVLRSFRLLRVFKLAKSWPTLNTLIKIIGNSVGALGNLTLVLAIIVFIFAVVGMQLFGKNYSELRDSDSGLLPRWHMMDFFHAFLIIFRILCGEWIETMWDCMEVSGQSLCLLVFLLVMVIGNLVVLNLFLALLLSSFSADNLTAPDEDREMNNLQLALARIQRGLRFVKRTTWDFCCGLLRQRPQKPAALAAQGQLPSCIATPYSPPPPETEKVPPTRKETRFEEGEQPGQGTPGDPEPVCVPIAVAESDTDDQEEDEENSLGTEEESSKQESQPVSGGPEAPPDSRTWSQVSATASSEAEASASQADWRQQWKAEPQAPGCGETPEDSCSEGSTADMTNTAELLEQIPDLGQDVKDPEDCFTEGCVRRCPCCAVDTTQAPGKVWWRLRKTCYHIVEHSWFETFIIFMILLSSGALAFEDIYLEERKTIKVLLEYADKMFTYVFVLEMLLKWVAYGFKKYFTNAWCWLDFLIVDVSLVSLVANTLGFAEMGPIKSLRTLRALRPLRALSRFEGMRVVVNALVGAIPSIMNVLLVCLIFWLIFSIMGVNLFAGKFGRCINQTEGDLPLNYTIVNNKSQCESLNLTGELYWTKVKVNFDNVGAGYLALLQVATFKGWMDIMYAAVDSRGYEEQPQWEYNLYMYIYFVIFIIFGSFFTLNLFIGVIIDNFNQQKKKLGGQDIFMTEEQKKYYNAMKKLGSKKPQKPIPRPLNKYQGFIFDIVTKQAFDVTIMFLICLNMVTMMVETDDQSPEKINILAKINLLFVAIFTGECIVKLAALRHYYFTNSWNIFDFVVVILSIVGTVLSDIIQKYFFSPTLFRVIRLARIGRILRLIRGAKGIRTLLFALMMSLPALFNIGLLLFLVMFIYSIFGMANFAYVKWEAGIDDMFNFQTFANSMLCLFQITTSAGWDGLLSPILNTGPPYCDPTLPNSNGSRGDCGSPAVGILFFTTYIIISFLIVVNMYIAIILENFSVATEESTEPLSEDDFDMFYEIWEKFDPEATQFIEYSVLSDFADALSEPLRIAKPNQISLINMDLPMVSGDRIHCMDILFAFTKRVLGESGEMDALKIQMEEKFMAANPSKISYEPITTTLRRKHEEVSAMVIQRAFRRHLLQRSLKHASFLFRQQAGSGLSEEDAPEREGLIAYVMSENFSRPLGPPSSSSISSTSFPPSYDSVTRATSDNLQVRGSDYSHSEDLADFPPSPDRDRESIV
As to the kind of experiment: Amplification of Nav1.5-derived voltage-dependent sodium current (Nav1.5 current), cell line stably expressing human Nav1.5, automated patch clamp. In kind it is cell-based. The conditions noted are these: for activation at 10 µM / activation at 1 µM / activation at 3 µM: read-out: Nav1.5 current amplification rate (%).

The mark [1] stands for this setting: 10 μmol/L compound, change of the area under the curve of Nav1.1 current (Test Result 1).
Where [2] appears, read: 10 μmol/L compound, change of the area under the curve of Nav1.5 current (Test Result 1).
Setting [3] is: compound 1 μmol/L, HEK293 stably expressing human Nav1.1.
The mark [4] stands for this setting: compound 1 μmol/L, CHO-K1 stably expressing human Nav1.5.
The mark [5] stands for this setting: compound 3 μmol/L, HEK293 stably expressing human Nav1.1.
Setting [6] is: compound 3 μmol/L, CHO-K1 stably expressing human Nav1.5.

As for `O=C(Cn1nc(C2=CCC(F)(F)CC2)ccc1=O)Nc1cncc(C(F)(F)F)c1` [Example 112], the activation at 10 µM amounted to 46% at human Nav1.1 (setting [1]) and 9% at human Nav1.5 (setting [2]).
For `CC1CCN(c2ccc(=O)n(CC(=O)N3CCc4c(N5CCOCC5)cccc43)n2)CC1` [Example 218], the values for the activation at 1 µM on human Nav1.1 (setting [3]) and on human Nav1.5 (setting [4]) were 155% and 9%, respectively.
On to `CC1CCN(c2ccc(=O)n(CC(=O)Nc3ccc(C(F)(F)F)nc3)n2)CC1` [Example 59], for which, at human Nav1.1 (setting [1]), the “Nav1.1 current amplification rate (%)” value is reported as 180%. Besides, the “Nav1.5 current amplification rate (%)” value on human Nav1.5 (setting [2]) is on record as 56%.
Take `O=C(Cn1nc(N2CCC3(CCC3)C2)ccc1=O)Nc1ccc2c(c1)OCCO2` [Example 191]: the activation at 3 µM came to 52% at human Nav1.1 (setting [5]) and 2% at human Nav1.5 (setting [6]).
Consider `CC1CCN(c2ccc(=O)n(CC(=O)N3CCc4cc(N5CCOCC5)ccc43)n2)CC1` [Example 164], for which the activation at 10 µM amounted to 187% at human Nav1.1 (setting [1]) and 34% on human Nav1.5 (setting [2]).
Take `COc1cc(C2=CCC(C)CC2)nn(CC(=O)N2CCc3c(N4CCOCC4)cccc32)c1=O` (racemic) [Example 473]: the “Nav1.1 current amplification rate (%)” value at human Nav1.1 (setting [1]) is reported as 487%. In addition, the “Nav1.5 current amplification rate (%)” value on human Nav1.5 (setting [2]) turned out to be 128%.
`CC(=O)N1CC(c2cccc3c2CCN3C(=O)Cn2nc(-c3ccc(C)cc3)ccc2=O)C1` [Example 520]: the activation at 1 µM at human Nav1.1 (setting [3]) was determined as 253%; on human Nav1.5 (setting [4]), 252%.
In the case of `COc1ccc2c(c1)CCN2C(=O)Cn1nc(N2CCC3(CCC3)C2)ccc1=O` [Example 187], the activation at 10 µM came out at 37% at human Nav1.1 (setting [1]) and 17% at human Nav1.5 (setting [2]).
The corresponding values for `COc1cc(N2CCC(C)(C)CC2)nn(CC(=O)Nc2ccn3ccnc3c2)c1=O` [Example 212] are 74% and 3%.
As to `CC1CC=C(c2ccc(=O)n(CC(=O)N3CC=C(c4cncc(F)c4)CC3)n2)CC1` (racemic) [Example 397], the “Nav1.1 current amplification rate (%)” value on human Nav1.1 (setting [1]) turned out to be 273%. For the same molecule, on human Nav1.5 (setting [2]), the “Nav1.5 current amplification rate (%)” value came out at 49%.
In the case of `CC1CCN(c2ccc(=O)n(CC(=O)Nc3ccc4oc(=O)[nH]c4c3)n2)CC1` [Example 82], on human Nav1.1 (setting [1]), the “Nav1.1 current amplification rate (%)” value was 121%. The “Nav1.5 current amplification rate (%)” value on human Nav1.5 (setting [2]) came to 5%.
The corresponding values for `CC1CC=C(c2ccc(=O)n(CC(=O)N3CC4(C3)CN(c3cccnc3)C4)n2)CC1` (stereo not shown) [Example 424] are 40% and 2%.
Take `O=C(Cn1nc(C2=CCC(F)(F)CC2)ccc1=O)Nc1ccn2ccnc2c1` [Example 464]: the “Nav1.1 current amplification rate (%)” value on human Nav1.1 (setting [1]) is recorded as 18%. At human Nav1.5 (setting [2]), the “Nav1.5 current amplification rate (%)” value is 1%.
Turning to `O=C(Cn1nc(N2CCC3(CCC3)C2)cc(N2CCCC2)c1=O)Nc1ccc2ocnc2c1` [Example 207], the activation at 10 µM was found to be 89% on human Nav1.1 (setting [1]) and 7% on human Nav1.5 (setting [2]).
`Cc1cc2cc(NC(=O)Cn3nc(N4CCC(C)CC4)ccc3=O)ccc2o1` [Example 175]: the activation at 10 µM came to 44% on human Nav1.1 (setting [1]) and 1% on human Nav1.5 (setting [2]).
The matching figures for `O=C(Cn1nc(N2CCC3(CCC3)C2)ccc1=O)Nc1ccc2c(c1)OCC2` [Example 172]: 117% and 4%.
Consider `Cc1cc(NC(=O)Cn2nc(C3=CCC(C)CC3)ccc2=O)cc2ncoc12` (racemic) [Example 323], for which the “Nav1.1 current amplification rate (%)” value at human Nav1.1 (setting [5]) turned out to be 154%. Moreover, at human Nav1.5 (setting [6]), the “Nav1.5 current amplification rate (%)” value came out at 11%.
Turning to `CC1CC=C(c2ccc(=O)n(CC(=O)Nc3ccc4nccn4n3)n2)CC1` (racemic) [Example 346], on human Nav1.1 (setting [3]), the “Nav1.1 current amplification rate (%)” value was 96%. Also, the “Nav1.5 current amplification rate (%)” value on human Nav1.5 (setting [4]) was 27%.
`Cc1cncc(N2CCN(C(=O)Cn3nc(C4=CCC(C)(C)CC4)ccc3=O)CC2)c1` [Example 442]: the “Nav1.1 current amplification rate (%)” value at human Nav1.1 (setting [1]) was determined as 414%. For the same molecule, the “Nav1.5 current amplification rate (%)” value at human Nav1.5 (setting [2]) was found to be 27%.
The matching figures for `COc1cc(C2=CCC(C)CC2)nn(CC(=O)N2CCN(c3cncc(F)c3)CC2)c1=O` (racemic) [Example 488]: 376% and 174%.
The matching figures for `COc1cc(=O)n(CC(=O)N2CCN(c3cncc(F)c3)CC2)nc1C1=CCC(C(F)(F)F)CC1` (racemic) [Example 486]: 148% and 8%.
Take `Cc1c(N2CCC3(CCCC3)C2)nn(CC(=O)Nc2ccn3ccnc3c2)c(=O)c1C` [Example 166]: the activation at 10 µM was 150% on human Nav1.1 (setting [1]) and 45% on human Nav1.5 (setting [2]).
Take `CC1CCN(c2ccc(=O)n(CC(=O)Nc3cccc(-c4cnco4)c3)n2)CC1` [Example 77]: the “Nav1.1 current amplification rate (%)” value at human Nav1.1 (setting [1]) is reported as 93%. The “Nav1.5 current amplification rate (%)” value at human Nav1.5 (setting [2]) is on record as 28%.
Consider `CC1CC=C(c2ccc(=O)n(CC(=O)N3CCc4c(OCC(C)(C)O)cccc43)n2)CC1` (racemic) [Example 307], for which the “Nav1.1 current amplification rate (%)” value at human Nav1.1 (setting [5]) was found to be 320%. In addition, the “Nav1.5 current amplification rate (%)” value at human Nav1.5 (setting [6]) worked out at 37%.
Turning to `CC1CC=C(c2ccc(=O)n(CC(=O)N3CCc4c(C5CN(C(=O)CO)C5)cccc43)n2)CC1` (racemic) [Example 321], the “Nav1.1 current amplification rate (%)” value at human Nav1.1 (setting [5]) was 478%. On human Nav1.5 (setting [6]), the “Nav1.5 current amplification rate (%)” value came to 330%.
The corresponding values for `CC1CC=C(c2ccc(=O)n(CC(=O)Nc3cc4nccn4cn3)n2)CC1` (racemic) [Example 328] are 58% and 21%.
The matching figures for `CC1CC=C(c2ccc(=O)n(CC(=O)N3CCc4c(CN5CCOCC5)cccc43)n2)CC1` (racemic) [Example 270]: 481% and 78%.
`CC1(C)CCN(c2ccc(=O)n(CC(=O)N3CCc4c(-c5ccnnc5)cccc43)n2)CC1` [Example 235]: the activation at 1 µM at human Nav1.1 (setting [3]) was 198%; on human Nav1.5 (setting [4]) it was 7%.
`Cc1c(N2CCC3(CCC3)C2)nn(CC(=O)Nc2ccn3ccnc3c2)c(=O)c1C` [Example 209]: the activation at 10 µM was determined as 179% at human Nav1.1 (setting [1]) and 16% on human Nav1.5 (setting [2]).
`CC1CC=C(c2ccc(=O)n(CC(=O)N3CCc4c3cccc4C(C)(C)O)n2)CC1` (racemic) [Example 277]: the “Nav1.1 current amplification rate (%)” value on human Nav1.1 (setting [3]) came to 210%. For the same molecule, on human Nav1.5 (setting [4]), the “Nav1.5 current amplification rate (%)” value worked out at 18%.
With `CC1CC=C(c2ccc(=O)n(CC(=O)N3CCc4c(Cn5ccnc5)cccc43)n2)CC1` (racemic) [Example 286], the “Nav1.1 current amplification rate (%)” value on human Nav1.1 (setting [3]) is given as 848%. The “Nav1.5 current amplification rate (%)” value at human Nav1.5 (setting [4]) amounted to 579%.
As for `COc1cc(N2CCC3(CCC3)C2)nn(CC(=O)N2CCc3c(N4CCOCC4)cccc32)c1=O` [Example 227], the activation at 3 µM at human Nav1.1 (setting [5]) was 303%; on human Nav1.5 (setting [6]), 17%.
In the case of `CC1CC=C(c2ccc(=O)n(CC(=O)N3CCc4c(-c5cn[nH]c5)cccc43)n2)CC1` (racemic) [Example 254], the “Nav1.1 current amplification rate (%)” value on human Nav1.1 (setting [5]) is listed as 309%. In addition, the “Nav1.5 current amplification rate (%)” value on human Nav1.5 (setting [6]) was determined as 74%.
As to `COC1CN(c2cccc3c2CCN3C(=O)Cn2nc(C3=CCC(C)(C)CC3)ccc2=O)C1` [Example 434], at human Nav1.1 (setting [1]), the “Nav1.1 current amplification rate (%)” value stood at 232%. Further, on human Nav1.5 (setting [2]), the “Nav1.5 current amplification rate (%)” value was determined as 142%.
With `CC1CC=C(c2ccc(=O)n(CC(=O)Nc3ccnc(C#N)c3)n2)CC1` (racemic) [Example 362], the “Nav1.1 current amplification rate (%)” value at human Nav1.1 (setting [3]) was found to be 133%. Moreover, the “Nav1.5 current amplification rate (%)” value at human Nav1.5 (setting [4]) came to 24%.
On to `O=C(Cn1nc(C2=CCCCC2)ccc1=O)N1CCc2c(-c3cnccn3)cccc21` [Example 521], for which the activation at 1 µM is 358% on human Nav1.1 (setting [3]) and 9% on human Nav1.5 (setting [4]).
As for `CC1(C)CC=C(c2ccc(=O)n(CC(=O)Nc3ccn4nccc4c3)n2)CC1` [Example 427], on human Nav1.1 (setting [1]), the “Nav1.1 current amplification rate (%)” value turned out to be 172%. Further, the “Nav1.5 current amplification rate (%)” value on human Nav1.5 (setting [2]) was found to be 63%.
Take `O=C(Cn1nc(C2=CCCCC2)ccc1=O)N1CCc2c(C3=CCOCC3)cccc21` [Example 528]: the activation at 1 µM on human Nav1.1 (setting [3]) was determined as 198%; at human Nav1.5 (setting [4]) it was 24%.
On to `COc1cc(N2CCN(C(=O)Cn3nc(C4=CCC(C)CC4)ccc3=O)CC2)ccc1F` (stereo not shown) [Example 413], for which the “Nav1.1 current amplification rate (%)” value at human Nav1.1 (setting [5]) stood at 27%. The “Nav1.5 current amplification rate (%)” value at human Nav1.5 (setting [6]) came out at 1%.
As to `O=C(Cn1nc(C2=CCCC2)ccc1=O)N1CCc2c(-c3ccnnc3)cccc21` [Example 523], the activation at 1 µM on human Nav1.1 (setting [3]) stood at 129%; at human Nav1.5 (setting [4]), 5%.
Turning to `CC1(C)CCN(c2ccc(=O)n(CC(=O)Nc3ccn4ccnc4c3)n2)CC1` [Example 192], the activation at 10 µM turned out to be 137% on human Nav1.1 (setting [1]) and 2% on human Nav1.5 (setting [2]).
The corresponding values for `O=C(Cn1nc(N2CCCC3(CCCC3)C2)ccc1=O)Nc1ccc2ocnc2c1` [Example 132] are 108% and -2%.
On to `CC1(C)CC=C(c2ccc(=O)n(CC(=O)N3CCN(c4cncc(F)c4)CC3)n2)C1` [Example 483], for which the “Nav1.1 current amplification rate (%)” value on human Nav1.1 (setting [1]) came to 175%. Also, the “Nav1.5 current amplification rate (%)” value at human Nav1.5 (setting [2]) is reported as 7%.
For the molecule `COc1ncc(-c2cccc3c2CCN3C(=O)Cn2nc(C3=CCC(C)CC3)ccc2=O)cn1` (racemic) [Example 249], the “Nav1.1 current amplification rate (%)” value at human Nav1.1 (setting [5]) stood at 584%. Moreover, the “Nav1.5 current amplification rate (%)” value on human Nav1.5 (setting [6]) is recorded as 106%.
